Several values for one entry are separate records, joined by “and”; a condition that tells them apart may be missing. Equal values may be shown once. Inconclusive results and toxic doses are left out.
Tested on: L1210 leukemia ip in BDF1 mice, survival T/C
Assay: NCI In Vivo Anticancer Drug Screen. Data for tumor model L1210 Leukemia (intraperitoneal) in B6D2F1 (BDF1) mice
Conditions: endpoint: mean survival time, higher = longer survival
Outline: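 Antitumor effect is assessed in tumor-bearing animals. Survival in the compound arm is compared with a vehicle-dosed control arm and expressed as their quotient.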

[1] = dose: 100.0 mg/kg/injection, schedule: Q04DX002 (ip), vehicle: saline with Tween-80
[2] = dose: 400.0 mg/kg/injection, schedule: Q04DX002 (ip), vehicle: saline with Tween-80
[3] = dose: 100.0 mg/kg/injection, schedule: Q04DX003 (ip), vehicle: saline with Tween-80
[4] = dose: 200.0 mg/kg/injection, schedule: Q04DX003 (ip), vehicle: saline with Tween-80
[5] = dose: 400.0 mg/kg/injection, schedule: Q04DX003 (ip), vehicle: saline with Tween-80

For `CC1CCCCN1Cc1ccccc1COC(=O)c1cccc(Cl)c1` (centres undefined), the T/C (dose: 25.0 mg/kg/injection, schedule: Q04DX002 (ip), vehicle: other) was 98 % of control, the T/C (dose: 50.0 mg/kg/injection, schedule: Q04DX002 (ip), vehicle: other) was 113 % of control and the T/C (dose: 50.0 mg/kg/injection, schedule: Q04DX002 (ip), vehicle: saline with Tween-80) was 91 % of control. For the same molecule, the T/C (dose: 100.0 mg/kg/injection, schedule: Q04DX002 (ip), vehicle: other) was 88 % of control, the T/C [1] was 94 % of control and 86 % of control and the T/C [2] was 101 % of control.
With `O=C1NCN(c2ccccc2)C12CCNCC2` the T/C (dose: 25.0 mg/kg/injection, schedule: Q01DX009 (ip), vehicle: saline sonified) was 108 % of control, the T/C (dose: 25.0 mg/kg/injection, schedule: Q04DX003 (ip), vehicle: saline with Tween-80) was 89 % of control and the T/C (dose: 50.0 mg/kg/injection, schedule: Q01DX009 (ip), vehicle: saline sonified) was 98 % of control. The T/C (dose: 50.0 mg/kg/injection, schedule: Q04DX003 (ip), vehicle: saline with Tween-80) was 94 % of control, the T/C (dose: 100.0 mg/kg/injection, schedule: Q01DX009 (ip), vehicle: saline sonified) was 103 % of control and the T/C (dose: 100.0 mg/kg/injection, schedule: Q04DX003 (ip), vehicle: saline sonified) was 95 % of control. The T/C [3] was 89 % of control.
For `c1ccc(-c2n[nH]c(-c3ccccc3)c2-c2ccccc2)cc1`, the T/C [3] was 92 % of control, the T/C [4] was 100 % of control and the T/C [5] was 95 % of control.
For `CC1(C)c2ccccc2-c2nc3ccccc3nc2C1O` (centres undefined), the T/C (dose: 100.0 mg/kg/injection, schedule: Q01DX001 (ip), vehicle: Klucel (hydroxypropylcellulose) (HPC)) was 94 % of control, the T/C (dose: 200.0 mg/kg/injection, schedule: Q01DX001 (ip), vehicle: Klucel (hydroxypropylcellulose) (HPC)) was 97 % of control and the T/C (dose: 400.0 mg/kg/injection, schedule: Q01DX001 (ip), vehicle: Klucel (hydroxypropylcellulose) (HPC)) was 103 % of control.
In the case of `O=C1NC(=O)C(c2ccc(Cl)cc2)(c2ccccc2Cl)N1` (centres undefined), the T/C (dose: 100.0 mg/kg/injection, schedule: Q04DX003 (ip), vehicle: Klucel (hydroxypropylcellulose) (HPC)) is reported as 95 % of control, the T/C (dose: 200.0 mg/kg/injection, schedule: Q04DX003 (ip), vehicle: Klucel (hydroxypropylcellulose) (HPC)) is reported as 102 % of control and the T/C (dose: 400.0 mg/kg/injection, schedule: Q04DX003 (ip), vehicle: Klucel (hydroxypropylcellulose) (HPC)) is reported as 98 % of control.
For `Cc1ccc(C(C)(CCC(=O)O)c2ccc(C)o2)o1`, the T/C [3] was 96 % of control, the T/C [4] was 96 % of control and the T/C [5] was 95 % of control.
For `CCOP(=O)(NN(C)C)OCC`, the T/C (dose: 12.5 mg/kg/injection, schedule: Q01DX009 (ip), vehicle: saline) was 107 % of control, the T/C (dose: 12.5 mg/kg/injection, schedule: Q04DX003 (ip), vehicle: saline) was 96 % of control and the T/C (dose: 25.0 mg/kg/injection, schedule: Q01DX009 (ip), vehicle: saline) was 104 % of control. For the same molecule, the T/C (dose: 25.0 mg/kg/injection, schedule: Q04DX003 (ip), vehicle: saline) was 104 % of control, the T/C (dose: 50.0 mg/kg/injection, schedule: Q01DX009 (ip), vehicle: saline) was 102 % of control and the T/C (dose: 50.0 mg/kg/injection, schedule: Q04DX003 (ip), vehicle: saline) was 107 % of control. For the same molecule, the T/C (dose: 100.0 mg/kg/injection, schedule: Q01DX009 (ip), vehicle: saline) was 102 % of control, the T/C (dose: 100.0 mg/kg/injection, schedule: Q04DX003 (ip), vehicle: saline) was 101 % of control and the T/C (dose: 200.0 mg/kg/injection, schedule: Q01DX009 (ip), vehicle: saline) was 95 % of control. For the same molecule, the T/C (dose: 200.0 mg/kg/injection, schedule: Q04DX003 (ip), vehicle: saline) was 106 % of control, the T/C (dose: 400.0 mg/kg/injection, schedule: Q01DX009 (ip), vehicle: saline) was 112 % of control and the T/C (dose: 400.0 mg/kg/injection, schedule: Q04DX003 (ip), vehicle: saline) was 96 % of control.
`O=NN(CCCl)C(=O)NC1[C@H](O)CCC[C@@H]1O` (some centres undefined) was tested, and the T/C (dose: 2.6 mg/kg/injection, schedule: Q01DX001 (ip), vehicle: saline) was 228 % of control, the T/C (dose: 4.0 mg/kg/injection, schedule: Q01DX001 (ip), vehicle: saline) was 385 % of control and the T/C (dose: 6.0 mg/kg/injection, schedule: Q01DX001 (ip), vehicle: saline) was 455 % of control. For the same molecule, the T/C (dose: 9.0 mg/kg/injection, schedule: Q01DX001 (ip), vehicle: saline) was 505 % of control, the T/C (dose: 14.0 mg/kg/injection, schedule: Q01DX001 (ip), vehicle: saline) was 340 % of control and 502 % of control and the T/C (dose: 22.0 mg/kg/injection, schedule: Q01DX001 (ip), vehicle: saline) was 256 % of control and 309 % of control.
`Nc1nc(N)nc(Cl)n1` was tested, and the T/C [1] was 98 % of control and the T/C [2] was 95 % of control.
With `OCC1OC(n2cc(Br)c3c2ncn2ccnc32)C(O)C1O` (centres undefined) the T/C (dose: 50.0 mg/kg/injection, schedule: Q01DX005 (ip), vehicle: saline) was 98 % of control, the T/C (dose: 100.0 mg/kg/injection, schedule: Q01DX005 (ip), vehicle: saline) was 104 % of control and the T/C (dose: 200.0 mg/kg/injection, schedule: Q01DX005 (ip), vehicle: saline) was 104 % of control.
In the case of `Clc1ccc(CC[PH+]2CC=CC2)cc1.Clc1ccc(CC[PH+]2CC=CC2)cc1.[Cl][Ni][Cl]`, the T/C [1] is reported as 107 % of control.
